Consider 14 compounds from patent publication US8962674B2 (Tokyo Institute of Technology, priority 2006, dated 2015).

Data set [1] addresses aggregated Aβ1-42 (Homo sapiens (Human), UniProt P05067). The experiment in a line: Aβ1-42 degradation assay on pre-formed aggregates, thioflavin T fluorescence (Test Example 3). The note with it: aggregated Aβ, 1 hr at 37° C., read-out: IC50 (Aβ1-42 aggregate degradation, Table 2 head). It counts as biochemical. The protocol:
Aβ1-42 (Peptide Institute) was dissolved in a 0.1% NH3 solution at a concentration of 60 μM, and incubated for 24 hr at 37° C. to form the aggregation. 25 μM of the aggregated Aβ solution diluted by 100 mM phosphate buffer (pH 7.4) and the compound dilution containing 2% DMSO were mixed in equal amount. The mixtures were incubated for 1 hr at 37° C. in a black 96-well plate. After incubation, 6 μM thioflavin T (Sigma) in 100 mM of glycine-NaOH buffer, pH 8.5, was added, and fluorescence was measured for excitation at 440 nm and emission at 486 nm. The solution with DMSO only, instead of the compound solution, was used as a negative control. The activity was calculated as a percentage of the negative control.

Data set [2] addresses Aβ1-42 (Homo sapiens (Human), UniProt P05067). The experiment in a line: Aβ aggregation inhibition assay, thioflavin T fluorescence (Test Example 2). It counts as biochemical. The following applies: 24 hr at 37° C. On the procedure:
Aβ3-42 aggregation Inhibition Assay
Aβ1-42 was dissolved in a 0.1% NH3 solution at a concentration of 100 μM and centrifuged for 1.5 hr at 200,000 g, and the supernatant are used in the assay. […] The mixtures were incubated for 24 hr at 37° C. in a black 96-well plate.

In data set [3] the test system is cerebral cortex cells of embryonic Wistar rat. The experiment in a line: Cytoprotection from Aβ1-42-induced cell cytotoxicity, MTT (Test Example 4). It is filed as cell-based. The following applies: compound 24 hr, then 5 μM Aβ1-42 for 48 hr. The protocol:
Cytoprotection from Aβ1-42-Induced Cell Cytotoxicity
Cerebral cortex was obtained from 19-20 day-old embryonic Wistar rat. The tissue was minced, dissociated using scalpel blades and Pasteur pipette, and centrifuged at 100 rpm. Precipitated cells were filtered using […] cell strainer, and single cells were prepared. These cells were suspended in Eagle's Minimum Essential Medium (EMEM) containing 10% Fetal bovine serum, and plated into 48-well tissue culture plates (Becton Dickinson) at 200 μL/well and 1.7×10^5 cells/cm^2. Cultures were incubated at 37° C. in a humidified atmosphere of 5% CO2.
After 3, 5, and 7 days in culture, the medium was replaced.
After 9 days, compounds were dissolved in DMSO and diluted in culture media so that the final concentration of DMSO in culture media was 0.1%, and each solution was added to each well at […] for 24 hr. The control solution contained 0.1% DMSO.
After 24 hr, Aβ1-42 was dissolved in a 0.1% NH3 solution at a concentration of 500 μM and diluted in culture media to a final concentration of 5 μM, and the Aβ solution was added to each well at […] for 48 hr. After 48 hr, cultures were treated with 0.5% MTT solution (Nacalai Tesque) for 35 min. The MTT solution was replaced with 2-propanol (200 μL), and the culture plates were shook to dissolve formazan. Absorption of the solution was measured at 570 nm.

The target of data set [4] is recombinant human β-secretase (rhBACE-1) (Homo sapiens (Human), UniProt P56817). The experiment in a line: β-Secretase enzyme inhibition assay (Test Example 1). It is filed as biochemical. The note with it: compound solution 3 μM (FIG. 1 legend: 1.0 μM), 37° C., 2 hr, fluorescent substrate peptide. The protocol: β-Secretase Enzyme Inhibition Assay
Chain of recombinant human β-secretase (rhBACE-1) (P56817 46-501): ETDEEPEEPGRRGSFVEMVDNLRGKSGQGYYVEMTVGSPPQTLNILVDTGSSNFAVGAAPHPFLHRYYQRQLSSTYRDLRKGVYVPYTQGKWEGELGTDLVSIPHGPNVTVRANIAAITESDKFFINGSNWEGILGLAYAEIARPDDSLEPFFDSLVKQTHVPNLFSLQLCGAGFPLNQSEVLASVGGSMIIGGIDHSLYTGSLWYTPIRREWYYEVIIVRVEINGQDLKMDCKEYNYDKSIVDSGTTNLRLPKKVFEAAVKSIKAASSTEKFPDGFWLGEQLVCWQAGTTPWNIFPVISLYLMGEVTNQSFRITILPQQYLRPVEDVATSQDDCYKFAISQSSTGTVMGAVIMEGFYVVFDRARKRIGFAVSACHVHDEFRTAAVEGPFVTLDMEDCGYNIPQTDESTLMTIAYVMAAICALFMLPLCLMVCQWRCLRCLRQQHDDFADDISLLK
Compounds were dissolved in dimethylsulfoxide (DMSO), and further diluted in 0.1 M sodium acetate buffer (with 150 mM sodium chloride, pH 4.5). The solution with no compound was used as a negative control. Then, 100 μL of these solutions (compound concentration: 3 μM), 1 μL of recombinant human β-secretase (rhBACE-1, R&D), and 5 μL of the fluorescent substrate peptide were mixed in a black 96-well plate (Nunc). After mixtures were incubated in the dark at 37° C. for 2 hr, the fluorescence intensities of the mixtures were measured by fluorescence microplate reader (Wallac) at 540 nm for excitation and at 590 nm for emission. The inhibition ratio was calculated as a percentage of the negative control. The sequence of the peptide was […] and labeled with fluorescent donor (Cy3) at Ser-1 and with quencher (Cy5Q) at Lys-9, respectively (Invitrogen).

The target in data set [5] is recombinant human BACE-1 (Homo sapiens (Human), UniProt P56817). The experiment in a line: Calculation of 50% inhibitory concentration (IC50) of BACE-1 (Test Example 5). It counts as biochemical. The following applies: 37° C., 2.5 hr, fluorescent substrate peptide. On the procedure: Compounds were dissolved in 0.1 M sodium acetate buffer (with 150 mM sodium chloride, pH 4.5) to each concentration with DMSO (concentration of compounds: 0.3, 0.9, 3.0, 9.0, and 30.0). The final concentration of DMSO was 10%. The solution with no compound was used as a negative control. 15 μL of these solutions, recombinant human BACE-1 (1.0 U/ml, Invitrogen), and the fluorescent substrate peptide (2.5 nM) were mixed in a black 384-well plate (Costar). Then, mixtures were incubated in the dark at 37° C. for 2.5 hr. The fluorescence intensities of the mixtures were measured at 540 nm for excitation and at 590 nm for emission. The inhibition ratio was calculated as a percentage of the negative control. The sequence of the peptide was […] and labeled with Cy3 at Ser-1 and with Cy5Q at Lys-9. Final concentrations of compounds were as follows: […].
Chain of recombinant human BACE-1 (P56817 46-501): as above

Chain of Aβ1-42 (P05067 672-713): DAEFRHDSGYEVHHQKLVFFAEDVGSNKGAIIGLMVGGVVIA
Chain of aggregated Aβ1-42 (P05067 672-713): as above

Broadly, the IC50 is the concentration at which inhibition is half-maximal. By melting point is commonly meant the temperature, or range, at which the solid turns liquid. In turn, `COc1cc(/C=C/C(=O)CC(=O)/C=C/c2ccc(S(C)(=O)=O)cc2)ccc1O` [CU005, (1E,6E)-1-(4-hydroxy-3-methoxyphenyl)-7-(4-methanesulfonylphenyl)hepta-1,6-diene-3,5-dione] showed a melting point of 117 to 120 °C. Moreover, in data set [1], the IC50 came to 3300 nM.
Take `COc1cc(/C=C/C(=O)CC(=O)/C=C/c2ccc(N(C)C)c3ccccc23)ccc1O` [CU019, (1E,6E)-1-(4-dimethylaminonaphthalen-1-yl)-7-(4-hydroxy-3-methoxyphenyl)hepta-1,6-diene-3,5-dione]: the IC50 in data set [1] was determined as 400 nM.
As to `COc1cc(/C=C/C(=O)CC(=O)/C=C/c2ccc[nH]2)ccc1O` [CU022, (1E,6E)-1-(4-hydroxy-3-methoxyphenyl)-7-(1H-pyrrol-2-yl)hepta-1,6-diene-3,5-dione], the melting point was in the range of 83 to 87 °C. The IC50 in data set [1] amounted to 5300 nM.
`Cc1ccc(/C=C/C(=O)CC(=O)/C=C/c2ccc(O)cc2)cc1C` [CU056, (1E,6E)-1-(3,4-dimethylphenyl)-7-(4-hydroxyphenyl)hepta-1,6-diene-3,5-dione] came in with a melting point of 150 to 152 °C. In data set [2], this compound gave an IC50 of 280 nM.
For `O=C(/C=C/c1ccc(O)cc1)CC(=O)/C=C/c1cccc(O)c1` [CU078, (1E,6E)-1-(3-hydroxyphenyl)-7-(4-hydroxyphenyl)hepta-1,6-diene-3,5-dione], the melting point turned out to be 217 °C. In data set [2], this compound registered an IC50 of 90 nM. Further, the “MEC, minimal effective concentration (cytoprotection)” value (shortened to “MEC, minimal effective concentration”) in data set [3] was 0.1 µM.
With `O=C(/C=C/c1ccc(O)cc1)CC(=O)/C=C/c1ccccc1O` [CU080, (1E,6E)-1-(2-hydroxyphenyl)-7-(4-hydroxyphenyl)hepta-1,6-diene-3,5-dione], in data set [3], the “MEC, minimal effective concentration” value came to 1.0 µM.
For the compound `O=C(/C=C/c1ccc(O)cc1)CC(=O)/C=C/c1cc(O)cc(O)c1` [CU092, (1E,6E)-1-(3,5-dihydroxyphenyl)-7-(4-hydroxyphenyl)hepta-1,6-diene-3,5-dione], the melting point was 238 to 241 °C. The “MEC, minimal effective concentration” value in data set [3] came out at 3.0 µM.
As for `COc1cc(N(C)C)ccc1/C=C/C(=O)CC(=O)/C=C/c1ccc(O)cc1` [CU153, (1E,6E)-1-(4-dimethylamino-2-methoxyphenyl)-7-(4-hydroxyphenyl)hepta-1,6-diene-3,5-dione], the melting point is 100 to 105 °C. In data set [2], this compound displayed a concentration for half-maximal inhibition (IC50) of 880 nM.
`COc1ccc(O)cc1/C=C/C(=O)CC(=O)/C=C/c1ccc(O)cc1` [CU177, (1E,6E)-1-(4-hydroxyphenyl)-7-(5-hydroxy-2-methoxyphenyl)hepta-1,6-diene-3,5-dione] returned a melting point of 183 to 186 °C. The compound further yielded an IC50 in data set [2] of 1100 nM.
As for `O=C(/C=C/c1ccc(O)cc1)CC(=O)/C=C/c1ccc2cc[nH]c2c1` [CU189, (1E,6E)-1-(4-hydroxyphenyl)-7-(1H-indol-6-yl)hepta-1,6-diene-3,5-dione], the melting point was 238 to 243 °C. Further, the “inhibition of BACE-1 enzyme activity (inhibitory activities (%) shown in FIG. 1)” value in data set [4] is “strongly inhibited”. For the same compound, the “inhibitory effect on BACE-1 activity (IC50 shown in FIG. 2)” value (from here on “inhibitory effect on BACE-1 activity”) in data set [5] was “inhibitory effect on BACE-1 activity at relatively low concentration”.
Compound `O=C(/C=C/c1ccc2ccn(Cc3ccccc3)c2c1)CC(=O)CCc1ccc(O)cc1` [CU520, (E)-1-(1-benzyl-1H-indol-6-yl)-7-(4-hydroxyphenyl)hept-1-ene-3,5-dione] registered a melting point of 45 to 50 °C. Also, the “inhibitory effect on BACE-1 activity” value in data set [5] is listed as “inhibitory effect on BACE-1 activity at relatively low concentration”.
In turn, `O=C(/C=C/c1cc(O)ccc1[N+](=O)[O-])CC(=O)CCc1ccc(O)cc1` [CU530, (E)-1-(5-hydroxy-2-nitrophenyl)-7-(4-hydroxyphenyl)hept-1-ene-3,5-dione] gave a melting point of 62 to 70 °C. Also, in data set [5], the “inhibitory effect on BACE-1 activity” value is “inhibitory effect on BACE-1 activity at relatively low concentration”.
In the case of `O=C(/C=C/c1ccc(O)cc1)CC(=O)/C=C/c1cc(O)ccc1Br` [CU532, (1E,6E)-1-(2-bromo-5-hydroxyphenyl)-7-(4-hydroxyphenyl)hepta-1,6-diene-3,5-dione], the melting point lay within 182 to 186 °C. Moreover, the “inhibitory effect on BACE-1 activity” value in data set [5] is “inhibitory effect on BACE-1 activity at relatively low concentration”.
`COc1cc(/C=C/C(=O)CC(=O)/C=C/c2ccc(O)c(OC)c2)ccc1O` [curcumin, reference compound]: the “MEC, minimal effective concentration” value in data set [3] came to 10 µM.
